Laboratory results from patent publication US20100233676A1, “HIGH AFFINITY FLUOROCHROME BINDING PEPTIDES” (priority 2007, published 2010).

Key:
[1] = test system: IQSPHFF peptide (SEQ ID NO:1), displayed on phage; assay: Binding of IQSPHFF phage to BSA-conjugated fluorochromes; details: FIG. 3A
Experimental: FIG. 3 presents exemplary data showing molecular modeling of IQSPHFF binding to VT-680. FIG. 3A. Binding affinities of IQSPHFF phage to BSA-conjugated fluorochromes via ELISA. FIG. 3B. Schematic π-π bonding between the phenylalanines of the peptide and the indole or benzoindole subunit of VT680 FIG. 3C. […] FIG. 3D. Illustrating a possible interaction of the peptide hydrophobic isoleucine and the hydrophobic alkene of the fluorochrome.
The affinity of IQSPHFF was determined using […] for different commercially available benzindol fluorochromes (Cy 3.5, Cy 5.5, VT680 and AF750). […] FIG. 3A.
The N-hydroxysuccinimide (NHS) ester of the benzindol fluorochromes VT680, GH680, Cy3.5, Cy5.5 or AF750 (1 mg) were conjugated to bovine serum albumin (BSA 100 mg/mL; 0.3 M NaCO3 buffer, pH 8.6) under reaction conditions of approximately tenfold molar excess VT680 to BSA. BSA-fluorochrome conjugate or BSA was adsorbed (5.0 μg/0.1 ml well, w/vol) overnight to wells of a Nunc Maxisorp plage (Nunc, Rochester, N.Y.). Supernatants were discarded and washed twice with PBS and blocked (5% BSA, 0.3 M NaCO3, pH 8.6, room temperature, 45 min). […]
Readout was depicted as the mean difference between absorbances in the BSA-fluorochrome containing wells and the BSA-only (negative control) wells. […]

HT1080 cells = assay: In vitro cell labeling of HT1080 cells, fluorescence plate reader; assay type: cell-based; details: free (unconjugated) peptide
Experimental: HT1080 […] cells (20,000 cells/well) were washed 3× with PBS to remove media then incubated with 0.1 mL of […] of Ac-IQSPHFF-NHS peptide or vehicle (PBS with 1% DMSO) for 1 hour at 37° C. Subsequent to incubation, cells were washed then incubated for 1 hour at 37° C. in the dark with 1 nmole of GH680 or 1 nmole of GH680+5 nmoles of underivatized peptide (competition experiment). Cells were then washed 6× with PBS+0.1% Tween 20 and analyzed via fluorescence plate reader GeminiXS (Molecular Devices). The IQSPHFF peptide sequence was covalently conjugated onto HT1080 cells and incubated with 5 nM of NIRF (VT680). Cells conjugated with IQSPHFF bound VT680>120-fold better than cells not conjugated with IQSPHFF. In addition, free (unconjugated) IQSPHFF peptide was able to compete for 98% of the binding of fluorochrome to peptide labeled cells, indicating the specificity of the interaction. FIG. 8A.

Cy5.5
affinity of IQSPHFF, relative between fluorochromes [1]: approximately four-fold less biding than VT680

IQSPHFF
competition of fluorochrome binding to peptide labeled cells by free peptide (HT1080 cells): 98%
